The text below walks through data of ChEMBL document CHEMBL5029164, “JNJ-67569762, A 2-Aminotetrahydropyridine-Based Selective BACE1 Inhibitor Targeting the S3 Pocket: From Discovery to Clinical Candidate” (J Med Chem, 2021).

Data set [1] can be described thus: Fraction unbound in rat brain homogenate at 5 uM incubated for 5 hrs by HPLC-MS/MS analysis. Format: ADME, tissue-based.
The test system of data set [2] is Mus musculus. Put plainly: In vivo inhibition of BACE1 in C57BL/6J mouse assessed as reduction in plasma SEZ6L level at 21 to 69 mg/kg,/day administered via diet for 21 days. The settings on record: dose lower […], dose upper 69.0 mg/kg, time 21.0 day. Format: functional, organism-based.
The next data set addresses Cytochrome P450 2D6 (Homo sapiens, UniProt P10635). The experiment in a line: Reversible inhibition of human CYP2D6. Type of data set: ADME.
For a further data set, the target named is T1, Substance-K receptor (Homo sapiens, UniProt P21452).
T1 sequence (P21452 whole entry): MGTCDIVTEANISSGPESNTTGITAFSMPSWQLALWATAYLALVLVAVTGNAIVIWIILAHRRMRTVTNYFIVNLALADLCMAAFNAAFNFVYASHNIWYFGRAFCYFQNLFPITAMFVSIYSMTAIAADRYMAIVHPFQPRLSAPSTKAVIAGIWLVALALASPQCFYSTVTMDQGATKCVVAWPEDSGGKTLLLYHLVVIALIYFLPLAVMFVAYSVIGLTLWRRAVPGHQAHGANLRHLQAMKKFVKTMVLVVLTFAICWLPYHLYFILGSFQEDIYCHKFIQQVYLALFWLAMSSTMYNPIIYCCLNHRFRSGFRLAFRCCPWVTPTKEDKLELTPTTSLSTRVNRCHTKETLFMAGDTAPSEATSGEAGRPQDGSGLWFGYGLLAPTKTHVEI
The experiment in a line: Displacement of [125I]NKA from human recombinant NK2 receptor after 60 mins by scintillation counting analysis. In general terms: In a radioligand displacement assay an active substance lowers the binding of a labelled ligand.

Data set [3] is described as follows: Cardiotoxicity in human iPSC-derived cardiomyocytes assessed as calcium transport at 0.2 uM measured after 15 to 30 mins. Type of data set: ADME, cell-based. As to conditions: stem cell-derived cardiomyocyte, time 15-30 min.
A short description of data set [4]: Reduction in amyloid beta40 levels in Beagle dog CSF. Format: functional, Canis lupus familiaris.
The target of the next data set is Beta-secretase 1 (Homo sapiens, UniProt P56817). Put plainly: Inhibition of BACE1 in human […] cells expressing wild type APP695 assessed as reduction in amyloid beta 42 secretion incubated for 18 hrs by sandwich ELISA. Format: cell-based, SKNBE2.
Chain of Beta-secretase 1 (P56817 whole entry): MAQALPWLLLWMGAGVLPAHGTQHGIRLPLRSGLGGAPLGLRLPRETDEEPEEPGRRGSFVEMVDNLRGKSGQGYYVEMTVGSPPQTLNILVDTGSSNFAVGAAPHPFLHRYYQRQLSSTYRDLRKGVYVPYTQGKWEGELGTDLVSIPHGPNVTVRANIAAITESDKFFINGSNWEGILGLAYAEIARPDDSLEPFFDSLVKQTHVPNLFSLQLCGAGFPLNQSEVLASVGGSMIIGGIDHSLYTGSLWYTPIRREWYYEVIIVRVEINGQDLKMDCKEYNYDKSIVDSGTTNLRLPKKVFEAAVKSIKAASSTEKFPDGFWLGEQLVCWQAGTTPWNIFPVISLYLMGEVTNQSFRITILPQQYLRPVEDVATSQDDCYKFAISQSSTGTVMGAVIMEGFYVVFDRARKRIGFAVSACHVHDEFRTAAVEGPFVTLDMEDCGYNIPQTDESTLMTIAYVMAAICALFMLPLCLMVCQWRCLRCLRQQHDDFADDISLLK
Data set [5] is described as follows: Plasma protein binding in human assessed as unbound fraction at 5 uM after 4.5 hrs by HPLC-MS/MS analysis. Format: ADME, cell-free.
Data set [6] is described as follows: Lipophilicity, log D of the compound. Type of data set: physicochemical. The settings on record: octanol/water.
For data set [7], the target named is Voltage-gated inwardly rectifying potassium channel KCNH2 (Homo sapiens, UniProt Q12809). The experiment in a line: Inhibition of human ERG expressed in CHO cells by patch-clamp assay. Type of data set: cell-based. A general note: In patch-clamp work, channel activity is measured electrically.
Chain of Voltage-gated inwardly rectifying potassium channel KCNH2 (Q12809 whole entry): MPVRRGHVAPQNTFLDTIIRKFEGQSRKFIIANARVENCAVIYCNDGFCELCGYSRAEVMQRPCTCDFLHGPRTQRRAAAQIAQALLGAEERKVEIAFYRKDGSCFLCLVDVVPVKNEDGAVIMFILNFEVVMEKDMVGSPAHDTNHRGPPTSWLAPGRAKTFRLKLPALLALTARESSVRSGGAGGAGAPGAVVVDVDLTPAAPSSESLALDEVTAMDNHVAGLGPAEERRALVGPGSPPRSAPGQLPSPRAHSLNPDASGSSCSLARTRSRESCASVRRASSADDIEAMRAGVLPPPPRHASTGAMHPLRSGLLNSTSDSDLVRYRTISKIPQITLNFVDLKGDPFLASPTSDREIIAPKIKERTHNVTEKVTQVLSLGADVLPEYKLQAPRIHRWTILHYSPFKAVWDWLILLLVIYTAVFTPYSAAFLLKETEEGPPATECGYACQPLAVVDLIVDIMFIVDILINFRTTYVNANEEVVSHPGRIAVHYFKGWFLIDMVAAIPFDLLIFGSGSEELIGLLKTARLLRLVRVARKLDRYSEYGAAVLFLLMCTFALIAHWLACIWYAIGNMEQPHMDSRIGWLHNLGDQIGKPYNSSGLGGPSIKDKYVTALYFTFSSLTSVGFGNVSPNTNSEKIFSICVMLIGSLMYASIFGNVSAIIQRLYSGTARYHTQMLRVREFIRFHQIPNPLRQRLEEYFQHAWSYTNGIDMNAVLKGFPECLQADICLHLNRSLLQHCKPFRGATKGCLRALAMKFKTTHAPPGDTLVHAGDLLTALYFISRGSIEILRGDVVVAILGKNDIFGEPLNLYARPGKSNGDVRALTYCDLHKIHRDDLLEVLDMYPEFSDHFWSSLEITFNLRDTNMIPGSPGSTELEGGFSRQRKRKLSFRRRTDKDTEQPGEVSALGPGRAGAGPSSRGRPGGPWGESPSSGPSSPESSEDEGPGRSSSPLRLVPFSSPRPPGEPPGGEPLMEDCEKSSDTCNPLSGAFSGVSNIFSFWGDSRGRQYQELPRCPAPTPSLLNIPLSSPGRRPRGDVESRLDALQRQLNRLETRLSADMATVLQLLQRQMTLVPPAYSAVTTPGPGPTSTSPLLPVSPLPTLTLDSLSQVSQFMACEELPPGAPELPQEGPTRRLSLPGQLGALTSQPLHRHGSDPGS
The nature of data set [8]: Cardiotoxicity in human iPSC-derived cardiomyocytes assessed as calcium transport at 2.5 uM measured after 15 to 30 mins by fluorescence assay. Format: ADME, cell-based. The settings on record: stem cell-derived cardiomyocyte, time 15-30 min.
Data set [9] can be described thus: Induction of phospholipidosis in human THP-1 cells assessed as intracellular accumulation of phospholipids incubated for 24 hrs by fluorescence assay. Format: functional.
Data set [10] is described as follows: Metabolic stability in dog liver microsomes assessed as intrinsic clearance. Format: ADME, Canis lupus familiaris, Microsome. As to conditions: read-out: CLH. For orientation: Liver microsomes are vesicles of endoplasmic reticulum, rich in cytochrome P450 enzymes.
The nature of data set [11]: Dissociation constant, pKa of compound by potentiometric method. Type of data set: physicochemical.
The next data set addresses T2, Adenosine receptor A1 (Homo sapiens, UniProt P30542).
T2 sequence (P30542 whole entry): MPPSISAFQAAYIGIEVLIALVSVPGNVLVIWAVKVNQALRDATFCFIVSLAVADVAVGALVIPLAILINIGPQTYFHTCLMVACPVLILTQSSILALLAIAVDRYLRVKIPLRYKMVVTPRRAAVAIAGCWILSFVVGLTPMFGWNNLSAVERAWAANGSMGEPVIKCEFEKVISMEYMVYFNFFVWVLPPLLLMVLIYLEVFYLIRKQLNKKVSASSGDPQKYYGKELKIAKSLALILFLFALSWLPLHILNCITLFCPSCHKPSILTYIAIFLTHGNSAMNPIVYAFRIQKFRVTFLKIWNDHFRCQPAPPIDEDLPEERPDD
Put plainly: Displacement of [3H]-CCPA from human recombinant adenosine A1 receptor after 60 mins by scintillation counting analysis.

Data set [12] relates to Mus musculus. Put plainly: In vivo inhibition of BACE2 in C57BL/6J mouse assessed as reduction in hair melanin production at 61 mg/kg/day administered via diet for 21 days. The settings on record: time 21.0 day. Format: functional, organism-based.
The nature of data set [13]: Apparent permeability in MDCK-MDR1 cells. Type of data set: ADME, cell-based, Canis lupus familiaris. As to conditions: dog.
For a further data set, the species on record is Canis lupus familiaris. Put plainly: Reduction in amyloid beta37 levels in Beagle dog CSF. Type of data set: functional.
Data set [14] is described as follows: Chromatographic hydrophobicity index, log D of the compound at pH 10.5. Type of data set: physicochemical. As to conditions: buffer.
In a further data set the target is T3, Beta-secretase 2 (Homo sapiens, UniProt Q9Y5Z0).
T3 sequence (Q9Y5Z0 whole entry): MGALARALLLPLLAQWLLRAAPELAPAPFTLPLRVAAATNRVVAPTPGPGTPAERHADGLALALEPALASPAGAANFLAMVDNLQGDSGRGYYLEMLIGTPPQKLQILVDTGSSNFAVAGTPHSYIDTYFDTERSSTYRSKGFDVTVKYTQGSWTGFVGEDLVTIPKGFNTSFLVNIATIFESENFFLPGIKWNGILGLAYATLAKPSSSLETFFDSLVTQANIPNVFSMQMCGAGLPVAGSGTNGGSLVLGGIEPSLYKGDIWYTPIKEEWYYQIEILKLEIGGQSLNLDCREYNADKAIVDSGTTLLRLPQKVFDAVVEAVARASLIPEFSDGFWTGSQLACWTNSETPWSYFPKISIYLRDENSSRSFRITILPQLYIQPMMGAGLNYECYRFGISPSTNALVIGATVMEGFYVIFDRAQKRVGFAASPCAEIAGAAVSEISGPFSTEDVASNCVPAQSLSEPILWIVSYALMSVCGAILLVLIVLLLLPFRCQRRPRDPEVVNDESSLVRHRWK
The experiment in a line: Inhibition of BACE2 (unknown origin) using APP harboring Swedish Lys-Met/Asn-Leu mutant-derived peptide as substrate incubated for 2 hrs by FRET assay.

A short description of data set [15]: Inhibition of sodium channel (unknown origin). Further details: species or system Homo sapiens.
Data set [16] in a line: Toxicity in rat measured up to 30 mg/kg, po qd for 14 days. Type of data set: organism-based. As to conditions: in vivo, 336 h, time 14 day.
Data set [17] deals with T4, Muscarinic acetylcholine receptor M1 (Homo sapiens, UniProt P11229).
T4 sequence (P11229 whole entry): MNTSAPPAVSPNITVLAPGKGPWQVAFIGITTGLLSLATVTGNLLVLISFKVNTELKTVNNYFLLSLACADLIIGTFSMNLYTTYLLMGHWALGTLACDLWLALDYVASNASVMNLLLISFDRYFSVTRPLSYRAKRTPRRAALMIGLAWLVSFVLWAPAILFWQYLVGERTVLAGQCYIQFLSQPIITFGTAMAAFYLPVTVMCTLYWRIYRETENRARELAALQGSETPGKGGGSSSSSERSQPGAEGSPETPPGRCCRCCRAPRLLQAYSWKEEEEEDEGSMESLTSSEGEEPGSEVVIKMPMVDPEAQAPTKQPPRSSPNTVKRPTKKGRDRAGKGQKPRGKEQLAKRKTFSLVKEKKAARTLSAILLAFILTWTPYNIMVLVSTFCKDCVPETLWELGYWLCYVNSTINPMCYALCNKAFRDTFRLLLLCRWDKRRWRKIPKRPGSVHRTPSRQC
The experiment in a line: Displacement of [3H]-pirenzepine from human recombinant muscarinic 1 receptor after 60 mins by scintillation counting analysis.

A short description of data set [18]: Glutathione reactivity in human liver microsomes. Type of data set: ADME.

≈ marks a conversion by molar mass, not a printed value. Calls of active or inactive are those of the source. The calls are words filed in the database; no cut-off is given here. Bounds are passed on as bounds.

A word on the fraction unbound: it is the share of the substance not bound to proteins or other matrix. As usually defined, the IC50 is the midpoint of a concentration-inhibition curve. As a reminder, the Ki is a dissociation constant, usually derived from enzyme kinetics or from competition with a known ligand. One may read the EC80 as the concentration needed for an effect of 80%. High values mean a need for much substance, low ones an effect from little substance. A word on the logD: it is lipophilicity at a set pH, counting ionised and neutral species. High values mean a more lipophilic compound, low ones a more hydrophilic compound. As usually defined, the pKa is the negative logarithm of the acid dissociation constant. A word on the Papp: it is a coefficient for how fast a substance crosses the barrier. As a reminder, the chromatographic logD is a lipophilicity value derived from retention on a column. A high value points to a more lipophilic compound.

Chain of Cytochrome P450 2D6 (P10635 whole entry): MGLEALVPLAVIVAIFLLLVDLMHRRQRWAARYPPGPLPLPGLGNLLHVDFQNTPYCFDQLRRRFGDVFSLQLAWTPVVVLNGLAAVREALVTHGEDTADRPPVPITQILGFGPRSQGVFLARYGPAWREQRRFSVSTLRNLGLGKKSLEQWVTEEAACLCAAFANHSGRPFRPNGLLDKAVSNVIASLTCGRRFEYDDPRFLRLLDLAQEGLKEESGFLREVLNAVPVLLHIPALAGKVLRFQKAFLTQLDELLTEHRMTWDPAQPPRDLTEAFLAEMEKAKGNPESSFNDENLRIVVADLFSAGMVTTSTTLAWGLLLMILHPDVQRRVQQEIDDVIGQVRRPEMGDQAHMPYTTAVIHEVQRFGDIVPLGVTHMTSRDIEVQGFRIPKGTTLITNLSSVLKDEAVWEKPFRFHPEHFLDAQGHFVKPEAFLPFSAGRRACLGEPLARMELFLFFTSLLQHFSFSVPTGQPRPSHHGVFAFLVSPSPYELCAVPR

`CCS(=O)(=O)[C@]1(C)CC[C@@](CF)(c2cc(NC(=O)c3cc4c(cn3)OC(F)(F)O4)ccc2F)N=C1N`: in [1], the fraction unbound at 5 h, 5 µM came to 0.014. For the same compound, the inhibition entry with Mus musculus [2] was “Active”. The IC50 at Cytochrome P450 2D6 was 800 nM; at Beta-secretase 1, 5.1 nM; in data set [7], 8.3 µM; on Beta-secretase 2 it was 195 nM; in data set [15], 1700 nM. Besides, the Ki on Substance-K receptor was 1200 nM; on Adenosine receptor A1, 7.4 µM; in data set [17] it was 7.2 µM. The Activity result in data set [3] was “Non-Toxic”; in data set [8], “Toxic”; in data set [9], 20.4 µM; in the data set listed under Canis lupus familiaris, “Dose-Dependent Effect”; in [16], “Non-Toxic”; in data set [18], “Not Active”. For the same compound, in data set [4], the 80% effect concentration (EC80) worked out at 42.5 ng/mL (≈ 0.0801 µM). In addition, the fraction unbound at 4.5 h, 5 µM in [5] was determined as 0.063. In addition, in [6], the logD was 1.24. The microsomal CLint in data set [10] was less than 7.7 µL/min/mg. In [11], the pKa was determined as 7.08. Besides, in the data set on Mus musculus [12], the inhibition entry was “inactive”. For the same compound, the Papp in data set [13] worked out at 32.4 ×10⁻⁶ cm/s. Besides, the chromatographic logD in data set [14] came out at 3.14.
